≈ marks a conversion by molar mass, not a printed value.

In one series the test system is Mammary tumor cell MCF-7. Briefly: Antitumor effect in vitro, proliferation inhibition (methylene blue staining, absorption at 660 nm). Type of series: cell-based. As to conditions: MCF-7, 2000 cells, incubated 3 days with compound; for IC50: Homo sapiens, MCF7, 72 h, read-out: IC50 (50% cell proliferation inhibitory concentration), MCF-7. How it is done:
(§1) Antitumor Effect in vitro Using Mammary Tumor Cell MCF-7 and MDA-MB-453
(§2) Each MCF-7, 2000 cells, and MDA-MB-453, 4000 cells, was inoculated using 10% serum added RPMI 1640 medium (Asahi Technoclass Inc.) into a 96 well plate. After incubating these cells at 37° C., under atmosphere of 5% CO2/95% air for 24 hours, each of the compounds of Examples 1, 2, 6, 9-13, 20, 24, 26, 27, 65, 66, 70, 71, 72 and 73 was added and incubated for further 3 days. Cells were stained with a 0.05% methylene blue solution and measured using a microplate reader (Benchmark Plus, Bio-Rad Laboratories) by absorption at 660 nm. Proliferation inhibition rate was calculated by the following equation, and 50% cell proliferation inhibitory concentrations of the compounds of Examples 1, 2, 6, 9-13, 20, 24, 26, 27, 65, 66, 70, 71, 72 and 73 were shown in Table 2. Proliferation inhibition rate=(1−absorbance with drug addition÷absorbance in control)×100

Series [1] relates to Mammary tumor cell MDA-MB-453. The series is described as above. The series is classed as cell-based. The settings on record: MDA-MB-453, 4000 cells, incubated 3 days with compound; for IC50: Homo sapiens, 72 h, read-out: IC50 (50% cell proliferation inhibitory concentration), MDA-MB-453. How it is done:
as §1, §2

Series [2] relates to mammary tumor cells, T-47D. Nature of the series: Antitumor effect in vitro, proliferation inhibition, same condition as Test Example 1. Type of series: cell-based. As to conditions: Homo sapiens, T47D, 4000 cells. How it is done: as §2
Further, a test was conducted by using 4000 mammary tumor cells, T-47D, by adding a compound of example 65 or 66 under the same condition hereinabove.

Series [3] deals with Mammary tumor cells ZR-75-1. Nature of the series: Antitumor effect in vivo, subcutaneous tumor in nude mice. The settings on record: day 15 after initiating administration; oral 500 mg/kg once a day for 14 days; ZR-75-1 in female nude mice. How it is done:
Antitumor Effect in vivo Using Mammary Tumor Cell ZR-75-1
Mammary tumor cells ZR-75-1 were inoculated in dorsal subcutaneous region of female nude mice. The compound of example 66 and example 53 was administered orally at dose level of 500 mg/kg, once a day, for 14 days consecutively from the point of initiating logarithmic growth of tumor cells. Conjugate axis and transverse axis of tumor were measured in the time dependent manner, and tumor volume was calculated by the following equation. Relative tumor volume, wherein tumor volume at the time of initiating administration was set as 1, was calculated. Effectiveness was judged by value (T/C) wherein tumor volume in the treated group is divided by tumor volume in the control group. tumor volume=conjugate axis×conjugate axis×transverse axis/2

Take `CC1CC(=O)c2cc(-c3cccc(C(F)(F)F)c3)nnc2C1` (stereo not drawn) [Example 66, 7-methyl-3-(3-trifluoromethylphenyl)-7,8-dihydro-6H-cinnolin-5-one]: the IC50 stood at 0.05 µg/mL (≈ 0.163 µM) in the series on Mammary tumor cell MCF-7, 1.26 µg/mL (≈ 4.11 µM) in series [1] and 0.28 µg/mL (≈ 0.914 µM) in series [2]. The “T/C value (tumor volume in treated group divided by control group)” value in series [3] is given as 30.3%.

Turning to `Cc1cc(OCc2ccccc2)c2cc(-c3cccc(C(F)(F)F)c3)nnc2c1` [Example 73, 5-benzyloxy-7-methyl-3-(3-trifluoromethylphenyl)cinnoline], the results for the IC50 (with Mammary tumor cell MCF-7; in series [1]) were 0.399 µg/mL (≈ 1.01 µM) and 2.6 µg/mL (≈ 6.59 µM), respectively.

`CC(C)(O)C1Cc2nnc(-c3cccc(C(F)(F)F)c3)cc2C(O)C1` (stereo not drawn) [Example 27, 7-(2-hydroxy-2-propyl)-3-(3-trifluoromethylphenyl)-5,6,7,8-tetrahydrocinnolin-5-ol]: the IC50 stood at 0.271 µg/mL (≈ 0.769 µM) in the series on Mammary tumor cell MCF-7 and 4.72 µg/mL (≈ 13.4 µM) in series [1].

Consider `CC1Cc2nnc(-c3cccc(C(F)(F)F)c3)cc2C(O)C1` (stereo not drawn) [Example 9, syn-(−)-7-methyl-3-(3-trifluoromethylphenyl)-5,6,7,8-tetrahydrocinnolin-5-ol], for which the “IC50 (50% cell proliferation inhibitory concentration), MCF-7” value with Mammary tumor cell MCF-7 was found to be 0.0772 µg/mL (≈ 0.25 µM). In addition, the “IC50 (50% cell proliferation inhibitory concentration), MDA-MB-453” value in series [1] was 0.3390 µg/mL (≈ 1.1 µM).

`CC1CC(=O)C2=C(C1)NN=C(c1cccc(C(F)(F)F)c1)C2` (stereo not drawn) [Example 65, 7-methyl-3-(3-trifluoromethylphenyl)-4,6,7,8-tetrahydro-1H-cinnolin-5-one]: the IC50 with Mammary tumor cell MCF-7 came to 0.1 µg/mL (≈ 0.324 µM); in series [1], 1.64 µg/mL (≈ 5.32 µM); in series [2], 0.67 µg/mL (≈ 2.17 µM).

As to `CC1CC(=O)c2cc(-c3cccc(F)c3)nnc2C1` (stereo not drawn) [Example 24, 3-(3-fluorophenyl)-7-methyl-7,8-dihydro-6H-cinnolin-5-one], the IC50 with Mammary tumor cell MCF-7 amounted to 3.57 µg/mL (≈ 13.9 µM); in series [1] it was 4.95 µg/mL (≈ 19.3 µM).

With `CC(=O)OC1CC(C)Cc2nnc(-c3cccc(C(F)(F)F)c3)cc21` (stereo not drawn) [Example 11, 5-acetyloxy-7-methyl-3-(3-trifluoromethylphenyl)-5,6,7,8-tetrahydrocinnoline], the figures for the IC50 (in the series on Mammary tumor cell MCF-7; in series [1]) were 0.0455 µg/mL (≈ 0.13 µM) and 0.848 µg/mL (≈ 2.42 µM), respectively.

In turn, `CC(C)[C@H](N)C(=O)O[C@H]1C[C@H](C)Cc2nnc(-c3cccc(C(F)(F)F)c3)cc21.Cl.Cl` came in with a melting point of 186 to 189 °C.

`CC1Cc2nnc(-c3cccc(C(F)(F)F)c3)cc2C(O)C1` (racemic) [Example 6, 7-methyl-3-(3-trifluoromethylphenyl)-5,6,7,8-tetrahydrocinnolin-5-ol]: the values for the IC50 (in the series on Mammary tumor cell MCF-7; in series [1]) were 0.0499 µg/mL (≈ 0.162 µM) and 1.47 µg/mL (≈ 4.77 µM), respectively.

For “7-benzyl-3-(3-trifluoromethylphenyl)-7,8-dihydro-6H-pyrido[3,4-c]-pyridazin-3-one [Example 26]”, the “IC50 (50% cell proliferation inhibitory concentration), MCF-7” value in the series on Mammary tumor cell MCF-7 is 0.3610 µg/mL. The “IC50 (50% cell proliferation inhibitory concentration), MDA-MB-453” value in series [1] came to 8.9300 µg/mL.

As for `COc1cc(C)cc2nnc(-c3cccc(C(F)(F)F)c3)cc12` [Example 71, 5-methoxy-7-methyl-3-(3-trifluoromethylphenyl)cinnoline], the IC50 turned out to be 0.158 µg/mL (≈ 0.496 µM) in the series on Mammary tumor cell MCF-7 and 3.36 µg/mL (≈ 10.6 µM) in series [1].

With `O=C1CC(c2ccccc2)Cc2nnc(-c3cccc(C(F)(F)F)c3)cc21` (stereo not drawn) [Example 1, 7-phenyl-3-(3-trifluoro-methylphenyl)-7,8-dihydro-6H-cinnolin-5-one], in the series on Mammary tumor cell MCF-7, the “IC50 (50% cell proliferation inhibitory concentration), MCF-7” value was determined as 0.0388 µg/mL (≈ 0.105 µM). Moreover, the “IC50 (50% cell proliferation inhibitory concentration), MDA-MB-453” value in series [1] came to 0.0395 µg/mL (≈ 0.107 µM).

Turning to `CC1Cc2nnc(-c3cccc(C(F)(F)F)c3)cc2C(O)C1` (stereo not drawn) [Example 10, syn-(+)-7-methyl-3-(3-trifluoromethylphenyl)-5,6,7,8-tetrahydrocinnolin-5-ol], the “IC50 (50% cell proliferation inhibitory concentration), MCF-7” value in the series on Mammary tumor cell MCF-7 amounted to 0.0982 µg/mL (≈ 0.319 µM). The “IC50 (50% cell proliferation inhibitory concentration), MDA-MB-453” value in series [1] was 1.5400 µg/mL (≈ 5 µM).

Regarding `CC1Cc2nnc(-c3cccc(C(F)(F)F)c3)cc2C(OC(=O)[C@@H](N)C(C)C)C1.Cl.Cl` (stereo partly drawn) [Example 53, 5-(L-valyloxy)-7-methyl-3-(3-trifluoromethylphenyl)-5,6,7,8-tetrahydrocinnoline dihydrochloride], the melting point fell in the range of 201 to 203 °C. In addition, the “T/C value (tumor volume in treated group divided by control group)” value in series [3] is 34.0%.

Consider `CCOC(=O)C1CC(=O)c2cc(-c3cccc(C(F)(F)F)c3)nnc2C1` (stereo not drawn) [Example 2, ethyl 5-oxo-3-(3-trifluoro-methylphenyl)-7,8-dihydro-6H-cinnoline-7-carboxylate], for which, in the series on Mammary tumor cell MCF-7, the “IC50 (50% cell proliferation inhibitory concentration), MCF-7” value turned out to be 1.9600 µg/mL (≈ 5.38 µM). Moreover, the “IC50 (50% cell proliferation inhibitory concentration), MDA-MB-453” value in series [1] is 1.5700 µg/mL (≈ 4.31 µM).

As for `Cc1cc(O)c2cc(-c3cccc(C(F)(F)F)c3)nnc2c1` [Example 70, 7-methyl-3-(3-trifluoromethylphenyl)cinnolin-5-ol], the IC50 was 0.181 µg/mL (≈ 0.595 µM) in the series on Mammary tumor cell MCF-7 and 0.551 µg/mL (≈ 1.81 µM) in series [1].

`CC(C)[C@H](N)C(=O)O[C@@H]1C[C@@H](C)Cc2nnc(-c3cccc(C(F)(F)F)c3)cc21.Cl.Cl` came in with a melting point of 181 to 185 °C.

For `CC(C)[C@H](N)C(=O)O[C@@H]1C[C@H](C)Cc2nnc(-c3cccc(C(F)(F)F)c3)cc21.Cl.Cl`, the melting point is 162 to 165 °C.

Turning to `O=C1CCCc2c1cc(-c1cccc(C(F)(F)F)c1)n[n+]2[O-]` [Example 13, 5-oxo-1-oxy-3-(3-trifluoromethylphenyl)-7,8-dihydro-6H-cinnoline], the “IC50 (50% cell proliferation inhibitory concentration), MCF-7” value in the series with Mammary tumor cell MCF-7 was 0.0671 µg/mL (≈ 0.218 µM). In addition, the “IC50 (50% cell proliferation inhibitory concentration), MDA-MB-453” value in series [1] turned out to be 0.9510 µg/mL (≈ 3.09 µM).

For the compound `CC1CC(=O)c2cc(-c3cccc([N+](=O)[O-])c3)nnc2C1` (stereo not drawn) [Example 20, 7-methyl-3-(3-nitrophenyl)-7,8-dihydro-6H-cinnolin-5-one], the IC50 with Mammary tumor cell MCF-7 is 1.41 µg/mL (≈ 4.96 µM); in series [1], 9.35 µg/mL (≈ 33 µM).

Consider `CC(=O)Oc1cc(C)cc2nnc(-c3cccc(C(F)(F)F)c3)cc12` [Example 72, 5-acetyloxy-7-methyl-3-(3-trifluoromethylphenyl)cinnoline], for which the figures for the IC50 (in the series with Mammary tumor cell MCF-7; in series [1]) were 0.138 µg/mL (≈ 0.398 µM) and 0.42 µg/mL (≈ 1.21 µM), respectively.

For orientation: melting point means the temperature, or range, at which the solid turns liquid.

Source of the values: patent US7563893B2, “3-Phenyl-cinnoline analogue and antitumor agent using the same” (Nippon Kayaku Kabushiki Kaisha, priority 2002, dated 2009).
